These are literature values, as cited in patent US9943488B2, “Gamma hydroxybutyric acid granules” (DEBREGEAS ET ASSOCIES PHARMA, priority 2011, dated 2018).

For the series the following is noted: after oral administration.

On to `O=C(O)CCCO` [GHB, Gamma-hydroxybutyric acid], for which the Absolute bio-availability is 25%.
